Source: ChEMBL document CHEMBL3991943, “Pharmaceutical formulations comprising salts of a protein kinase inhibitor and methods of using same” (2013)

Experiments:
Canis familiaris [1] = assay: Acute toxicity in Beagle dog assessed as animal appearance at 0.625 to 20 mg/kg, iv administered with 48 to 96 hrs between dose escalations with exception of 11 days between dose 5 and 6 measured after doses 1 through 5 and prior to dose 6; format: organism-based, Canis lupus familiaris; settings: in vivo
Canis familiaris [2] = assay: Acute toxicity in Beagle dog at 20 mg/kg, iv; format: organism-based, Canis lupus familiaris; settings: in vivo
Rattus norvegicus [3] = assay: Acute toxicity in rat assessed as lethargy at 10 mg/kg, iv administered for 30 mins measured after 1 hr post dose; format: organism-based; settings: in vivo
Canis familiaris [4] = assay: Acute toxicity in Beagle dog assessed as defecation at 0.625 to 20 mg/kg, iv dosed with 48 to 96 hrs between dose escalations with exception of 11 days between dose 5 and 6 measured during dose 6 administration; format: organism-based, Canis lupus familiaris; settings: in vivo
Rattus norvegicus [5] = assay: Acute toxicity in rat assessed as loss of body weight at 0.625 to 10 mg/kg, iv administered as single dose for 30 mins measured on day 2; format: organism-based; settings: in vivo, 0.5 h
OVCAR-3 = assay: Induction of DNA damage in human OVCAR3 cells assessed as increase in gamma-H2AX levels at 10 uM in presence of topotecan; format: functional
Canis familiaris [6] = assay: Acute toxicity in male Beagle dog assessed as mild venous congestion in meningeal vein between brain hemispheres and in venous sinus on cranial floor at 10 mg/kg, iv administered for 48 hrs followed by 20 mg/kg, iv administered for 3 days measured post dose; format: organism-based, Canis lupus familiaris; settings: in vivo
Canis familiaris [7] = assay: Acute toxicity in Beagle dog assessed as recumbency at 0.625 to 20 mg/kg, iv dosed with 48 to 96 hrs between dose escalations with exception of 11 days between dose 5 and 6 measured during dose 6 administration; format: organism-based, Canis lupus familiaris; settings: in vivo
Mus musculus [8] = assay: Toxicity in athymic nude mouse xenografted with human A549 cells assessed as loss of body weight at 50 to 150 mg/kg, po qd administered 5 days for 3 weeks; format: organism-based; settings: in vivo
Canis familiaris [9] = assay: Acute toxicity in Beagle dog assessed as thrombus formation in veins at 10 mg/kg, iv administered for 48 hrs followed by 20 mg/kg, iv administered for 3 days measured post dose; format: organism-based, Canis lupus familiaris; settings: in vivo
Canis familiaris [10] = assay: Acute toxicity in Beagle dog assessed as depression at 0.625 to 20 mg/kg, iv dosed with 48 to 96 hrs between dose escalations with exception of 11 days between dose 5 and 6 measured during dose 6 administration; format: organism-based, Canis lupus familiaris; settings: in vivo
Rattus norvegicus [11] = assay: Acute toxicity in rat assessed as labored breathing at 10 mg/kg, iv administered for 30 mins measured immediately and 10 mins post dose; format: organism-based; settings: in vivo
Canis familiaris [12] = assay: Acute toxicity in Beagle dog assessed as weight gain at 0.625 to 20 mg/kg, iv dosed with 48 to 96 hrs between dose escalations with exception of 11 days between dose 5 and 6 measured during course of 21 study days; format: organism-based, Canis lupus familiaris; settings: in vivo
Rattus norvegicus [13] = assay: Acute toxicity in rat assessed as red tinged urine at 10 mg/kg, iv administered for 30 mins measured post dose; format: organism-based; settings: in vivo, 0.5 h
Canis familiaris [14] = assay: Acute toxicity in Beagle dog assessed as anxiety at 0.625 to 20 mg/kg, iv dosed with 48 to 96 hrs between dose escalations with exception of 11 days between dose 5 and 6 measured during dose 6 administration; format: organism-based, Canis lupus familiaris; settings: in vivo
Rattus norvegicus [15] = assay: Acute toxicity in rat assessed as bright red lungs at 10 mg/kg, iv administered as single dose for 30 mins measured on day 4; format: organism-based; settings: in vivo, 0.5 h
Mus musculus [16] = assay: Toxicity in athymic nude mouse xenografted with human TT cells at 7.5 to 15 mg/kg, ip qd administered for 2 weeks; format: organism-based; settings: in vivo, 336 h
A549 = assay: Antitumor activity against human A549 cells xenografted in athymic nude mouse assessed as tumor growth at 10 mg/kg, po qd administered 5 days for 3 weeks measured on day 26 (reference value: 43 mm3/day); format: functional
Rattus norvegicus [17] = assay: Acute toxicity in rat assessed as recumbency at 10 mg/kg, iv administered for 30 mins measured immediately and 10 mins post dose; format: organism-based; settings: in vivo
Mus musculus [18] = assay: Toxicity in athymic nude mouse xenografted with human HT-29 cells assessed as overt toxicity at 10 to 20 mg/kg, ip qd administered 5 days for 2 weeks; format: organism-based; settings: in vivo
Canis familiaris [19] = assay: Acute toxicity in Beagle dog assessed as adverse events at 10 mg/kg, iv administered for 48 hrs followed by 20 mg/kg, iv administered for 3 days measured everyday after second dose; format: organism-based, Canis lupus familiaris; settings: in vivo
Mus musculus [20] = assay: Toxicity in athymic nude mouse xenografted with human HT-29 cells assessed as loss of body weight at 10 to 20 mg/kg, ip qd administered 5 days for 2 weeks; format: organism-based; settings: in vivo
Canis familiaris [21] = assay: Acute toxicity in female Beagle dog assessed as meningeal vessel congestion at 0.625 to 20 mg/kg, iv administered with 48 to 96 hrs between dose escalations with exception of 11 days between dose 5 and 6 measured after 21 days; format: organism-based, Canis lupus familiaris; settings: in vivo, 504 h
Rattus norvegicus [22] = assay: Acute toxicity in rat assessed as recumbency at 10 mg/kg, iv administered for 30 mins measured after 1 hr post dose; format: organism-based; settings: in vivo
Canis familiaris [23] = assay: Acute toxicity in Beagle dog assessed as urination at 0.625 to 20 mg/kg, iv dosed with 48 to 96 hrs between dose escalations with exception of 11 days between dose 5 and 6 measured during dose 6 administration; format: organism-based, Canis lupus familiaris; settings: in vivo
Rattus norvegicus [24] = assay: Acute toxicity in rat assessed as dark red mottled lungs at 10 mg/kg, iv administered for 30 mins measured post dose; format: organism-based; settings: in vivo, 0.5 h
Rattus norvegicus [25] = assay: Acute toxicity in rat assessed as red urine at 0.625 to 10 mg/kg, iv administered as single dose for 30 mins measured immediately, 10 mins and 1 hr post dose; format: organism-based; settings: in vivo
Rattus norvegicus [26] = assay: Acute toxicity in rat assessed as mortality at 10 mg/kg, iv administered for 30 mins measured post dose; format: organism-based; settings: in vivo, 0.5 h
Canis familiaris [27] = assay: Acute toxicity in Beagle dog assessed as weight gain at 10 mg/kg, iv administered for 48 hrs followed by 20 mg/kg, iv administered for 3 days measured everyday after second dose; format: organism-based, Canis lupus familiaris; settings: in vivo
Canis familiaris [28] = assay: Acute toxicity in female Beagle dog assessed as mortality at 0.625 to 20 mg/kg, iv measured after 5 mins of completion of dose 6 administration; format: organism-based, Canis lupus familiaris; settings: in vivo
Canis familiaris [29] = assay: Acute toxicity in male Beagle dog assessed as animal appearance at 0.625 to 20 mg/kg, iv dosed with 48 to 96 hrs between dose escalations with exception of 11 days between dose 5 and 6 measured following day after dose 6 administration; format: organism-based, Canis lupus familiaris; settings: in vivo
Rattus norvegicus [30] = assay: Acute toxicity in rat assessed as normal appearance at 0.625 to 10 mg/kg, iv administered as single dose for 30 mins measured on day 4; format: organism-based; settings: in vivo, 0.5 h
Rattus norvegicus [31] = assay: Acute toxicity in rat assessed as induction of red urine excretion at 10 mg/kg, iv administered for 30 mins measured after 1 hr post dose; format: organism-based; settings: in vivo
Rattus norvegicus [32] = assay: Acute toxicity in rat assessed as induction of red urine excretion at 10 mg/kg, iv administered for 30 mins measured immediately, 10 mins and 1 hr post dose; format: organism-based; settings: in vivo
Rattus norvegicus [33] = assay: Acute toxicity in rat assessed as lethargy at 10 mg/kg, iv administered for 30 mins measured at 1 hr post dose; format: organism-based; settings: in vivo
Canis familiaris [34] = assay: Acute toxicity in Beagle dog assessed as facial swelling at 0.625 to 20 mg/kg, iv dosed with 48 to 96 hrs between dose escalations with exception of 11 days between dose 5 and 6 measured during dose 6 administration; format: organism-based, Canis lupus familiaris; settings: in vivo
Rattus norvegicus [35] = assay: Acute toxicity in rat assessed as normal appearance at 10 mg/kg, iv administered for 30 mins measured on day 4; format: organism-based; settings: in vivo, 0.5 h
Rattus norvegicus [36] = assay: Acute toxicity in rat assessed as wobbly appearance at 0.625 to 10 mg/kg, iv administered as single dose for 30 mins measured immediately, 10 mins and 1 hr post dose; format: organism-based; settings: in vivo
Canis familiaris [37] = assay: Acute toxicity in female Beagle dog assessed as intestinal mucosal congestion at 0.625 to 20 mg/kg, iv administered with 48 to 96 hrs between dose escalations with exception of 11 days between dose 5 and 6 measured after 21 days; format: organism-based, Canis lupus familiaris; settings: in vivo, 504 h
Canis familiaris [38] = assay: Acute toxicity in male Beagle dog assessed as adverse clinical signs at 10 mg/kg, iv; format: organism-based, Canis lupus familiaris; settings: in vivo

S=C(NCc1ccc2c(c1)OCO2)N1CCN(c2ncnc3c2oc2ccccc23)CC1 [AMUVATINIB]
Activity (Canis familiaris [1]): Non-Toxic | Activity (Canis familiaris [2]): Toxic | Activity (Rattus norvegicus [3]): Non-Toxic | Activity (Canis familiaris [4]): Toxic | Activity (Rattus norvegicus [5]): Toxic | Activity (OVCAR-3): 103% | Activity (Canis familiaris [6]): Toxic | Activity (Canis familiaris [7]): Toxic | Activity (Mus musculus [8]): Non-Toxic | Activity (Canis familiaris [9]): Toxic | Activity (Canis familiaris [10]): Toxic | Activity (Rattus norvegicus [11]): Toxic | Activity (Canis familiaris [12]): Toxic | Activity (Rattus norvegicus [13]): Toxic | Activity (Canis familiaris [14]): Toxic | Activity (Rattus norvegicus [15]): Toxic | Activity (Mus musculus [16]): Non-Toxic | Activity (A549): 19.5 mm3/day | Activity (Rattus norvegicus [17]): Toxic | Activity (Mus musculus [18]): Toxic | Activity (Canis familiaris [19]): Toxic | Activity (Mus musculus [20]): Non-Toxic | Activity (Canis familiaris [21]): Toxic | Activity (Rattus norvegicus [22]): Non-Toxic | Activity (Canis familiaris [23]): Toxic | Activity (Rattus norvegicus [24]): Toxic | Activity (Rattus norvegicus [25]): Toxic | Activity (Rattus norvegicus [26]): Toxic | Activity (Canis familiaris [27]): Toxic | Activity (Canis familiaris [28]): Toxic | Activity (Canis familiaris [29]): Non-Toxic | Activity (Rattus norvegicus [30]): Non-Toxic | Activity (Rattus norvegicus [31]): Non-Toxic | Activity (Rattus norvegicus [32]): Toxic | Activity (Rattus norvegicus [33]): Toxic | Activity (Canis familiaris [34]): Toxic | Activity (Rattus norvegicus [35]): Non-Toxic | Activity (Rattus norvegicus [36]): Toxic | Activity (Canis familiaris [37]): Toxic | Activity (Canis familiaris [38]): Non-Toxic
